Data as given in patent US6426355B1, “Heterocyclic carboxamide-containing thiourea inhibitors of herpes viruses containing phenylenediamine group” (American Home Products, priority 1998, dated 2002).
≈ marks a conversion by molar mass, not a printed value.

Experiments:
HSV-1 = assay: HSV Antiviral (ELISA) assay; assay type: cell-based; settings: for IC50 (ug/ml) HSV: HSV-1 in Vero cells
Protocol: Vero cells (ATCC #CCL-81) are plated on 96-well tissue culture plates at 3.5×10^4 cells per 100 μl tissue culture DMEM (Dulbecco's modified Eagle media) supplemented with 2% fetal bovine serum (FBS) in each well. After overnight incubation @ 37° C. (in 5% CO2) and 30 minutes prior to infection with HSV-1 (multiplicity of infection equal to 0.006), cells are either untreated, or treated with test compound (multiple concentrations) or reference standard drug control. After approximately 24 hours post-infection incubation @ 37° C. (in 5% CO2), cells are fixed for ELISA assay. The primary antibody is murine anti-HSV glycoprotein D monoclonal primary antibody and the secondary antibody is goat anti-mouse IgG linked to β-galactosidase. Thus the extent of viral replication is determined by assessing β-galactosidase activity by quantifying the generation of the 4-methyl umbelliferone fluorescent cleavage product after addition of the methyl umbelliferyl-β-D-galactoside (Sigma #M1633) substrate on a microfluorimeter (365 nm for excitation and 450 nm for emission). Antiviral activity (IC50) of the test compound is determined by comparing the flourescence obtained in absence of compound to that obtained in the presence of compound.

[1] = test system: HCMV recombinant mutant virus (RV145); assay: HCMV microtiter plate assay (beta-glucuronidase reporter); assay type: cell-based, Human Cytomegalovirus; settings: for IC50: Human betaherpesvirus 5, Fibroblast, read-out: IC50 (ug/ml) HCMV; for IC50 (ug/ml) HCMV: HCMV in human foreskin fibroblasts
Excerpt: Ninety-six well plate cultures of human foreskin fibroblasts are infected in the presence of inhibitor compound with a HCMV recombinant mutant virus whose genome contains the prokaryotic beta-glucuronidase gene (Jefferson, R. A., S. M. Burgess, and D. Hirsh. 1986. Beta-glucuronidase from Escherichia coli as a gene fusion marker. Proc. Natl. Acad. Sci. USA 83:8447-8451) whose expression is controlled by a viral promoter. An example of such a virus is RV145 (Jones, T. R., V. P. Muzithras, and Y. Gluzman. 1991. Replacement mutagenesis of the human cytomegalovirus genome: US10 and US11 gene products are nonessential. J. Virol. 65:5860-5872). Since it is under the control of a viral promoter, beta-glucuronidase expression is an indirect indicator of growth and replication of HCMV in this assay. At 96 hours post-infection, the infected cell lysates are prepared (using 50 mM sodium phosphate [pH7.0] containing 0.1% Triton X-100 and 0.1% sarkosyl) and assayed for beta-glucuronidase activity using a substrate for the enzyme which when cleaved yields either a product which can be measured colorimetrically in a spectrophotometer or fluorescently in a microfluorimeter. Examples of such substrates are p-nitrophenyl-beta-D-glucuronide and methylumbelliferylglucuronide, respectively. The presence of an antiviral compound is indicated by the reduced expression of the HCMV genome resident beta-glucuronidase gene, compared to the absence of inhibitor. […] Data from this assay generated using varying amounts of inhibitor compound is also used to estimate the IC50 of an inhibitor compound.

VZV strain Ellen = assay: VZV Antiviral (ELISA) assay; assay type: cell-based; settings: for IC50 (ug/ml) VZV: VZV strain Ellen in HFF cells; for inhibition at 10 µg/mL: Human alphaherpesvirus 3, read-out: % inhibition 10 ug/ml VZV, at 10 ug/ml, VZV strain Ellen in HFF cells
Protocol: For the generation of stock VZV to be used in the assay, VZV strain Ellen (ATCC #VR-1367) is used to infect human foreskin fibroblast (HFF) cells at low multiplicity (less than 0.1) and incubated overnight at 37° C. in 5% CO2. After the overnight incubation, the mixture of uninfected and VZV-infected HFF infected cells are then harvested and added to each well of 96-well plates (3.5×10^4 cells in 100 μl DMEM supplemented with 2% FBS) which contain test compound or the reference standard drug control (in 100 μl DMEM supplemented with 2% FBS per well). These cells are incubated for three days at 37° C. in 5% CO2, then fixed for ELISA assay. The primary antibody is murine anti-VZV glycoprotein II monoclonal antibody (Applied Biosystems, Inc. #13-145-100) and the secondary antibody is goat anti-mouse IgG linked to β-galactosidase. Thus the extent of viral replication is determined by assessing β-galactosidase activity by quantifying the generation of the 4-methyl umbelliferone fluorescent cleavage product after addition of the methyl umbelliferyl-β-D-galactoside (Sigma #M1633) substrate on a microfluorimeter (365 nm for excitation and 450 nm for emission). Antiviral activity (IC50) of the test compound is determined by comparing the flourescence obtained in absence of compound to that obtained in the presence of compound.

| SMILES | IC50 (ug/ml) HSV (HSV-1) [µg/mL] | IC50 (ug/ml) HCMV [1] [µg/mL] | IC50 (ug/ml) VZV (VZV strain Ellen) [µg/mL] | further results |
| --- | --- | --- | --- | --- |
| O=C(NCc1ccc(Cl)c(Cl)c1)Nc1ccc(NC(=O)c2csnn2)cc1 [Example 90, [1,2,3]Thiadiazole-4-carboxylic acid {4-[3-(3,4-dichloro-benzyl)-ureido]-phenyl}-amide] |  |  |  | IC50 (HSV-1; Human alphaherpesvirus 1, HSV-1 in Vero cells, read-out: IC50 (ug/ml) HSV): > 10 µg/mL; IC50 [1]: 0.07 µg/mL (≈ 166 nM) |
| COc1cc(OC)c(NC(=S)Nc2ccc(NC(=O)c3cnccn3)cc2)cc1Cl [Example 144] | 7 (≈ 15800 nM) | 10 (≈ 22500 nM) |  |  |
| O=C(Nc1ccc(NC(=S)NCc2ccc3c(c2)OCO3)cc1)c1ccco1 [Example 546] | 1.7 (≈ 4300 nM) |  | 7 (≈ 17700 nM) |  |
| O=C(Nc1ccc(NC(=S)NCCCCc2ccccc2)cc1)c1csnn1 [Example 648] | >10 | 0.01 (≈ 24.3 nM) |  |  |
| COc1ccccc1CNC(=S)Nc1ccc(NC(=O)c2csnn2)cc1 [Example 650] | >10 | 0.05 (≈ 125 nM) |  |  |
| COc1ccccc1CCNC(=S)Nc1ccc(NC(=O)c2csnn2)cc1 [Example 651] | >10 | 0.03 (≈ 72.5 nM) |  |  |
| COc1ccc(CCNC(=S)Nc2ccc(NC(=O)c3csnn3)cc2)cc1 [Example 652] | >10 | 0.03 (≈ 72.5 nM) |  |  |
| CN(C)CCCc1cc(NC(=S)Nc2ccc(NC(=O)c3csnn3)cc2)cc(C(F)(F)F)c1 [Example 654] | >10 | 0.07 (≈ 138 nM) |  |  |
| O=C(Nc1ccc(NC(=S)NCCSc2ccccc2)cc1)c1csnn1 [Example 655] | >10 | 0.01 (≈ 24.1 nM) |  |  |
| O=C(Nc1ccc(NC(=S)NCCSc2ccccc2)cc1)c1ccco1 [Example 657] | 6 (≈ 15100 nM) | 0.04 (≈ 101 nM) |  |  |
| O=C(Nc1ccc(NC(=S)NCc2cccc(I)c2)cc1)c1ccco1 [Example 662] | >10 | 0.03 (≈ 62.8 nM) |  |  |
| O=C(Nc1ccc(NC(=S)NC(CO)c2ccccc2)cc1)c1csnn1 (stereo not drawn) [Example 726] | >10 |  |  |  |
| CC(C)(NC(=S)Nc1ccc(NC(=O)c2csnn2)cc1)c1ccccc1 [Example 728] | 9 (≈ 22600 nM) |  |  |  |
| CC(NC(=S)Nc1ccc(NC(=O)c2cscn2)cc1)c1ccc(F)cc1Cl (stereo not drawn) [Example 839] |  | 0.004 (≈ 9.2 nM) | >7.5 |  |
| CC(NC(=S)Nc1ccc(NC(=O)c2cscn2)cc1)c1ccc(F)c(F)c1 (stereo not drawn) [Example 840] |  | 0.0015 (≈ 3.58 nM) | 0.14 (≈ 335 nM) |  |
| CC(NC(=S)Nc1ccc(NC(=O)c2cscn2)cc1)c1ccc(Br)cc1F (stereo not drawn) [Example 841] |  | 0.0011 (≈ 2.29 nM) | 0.77 (≈ 1610 nM) |  |
| CC(NC(=S)Nc1ccc(NC(=O)c2cscn2)cc1)c1cccc(F)c1 (stereo not drawn) [Example 842] |  | 0.02 (≈ 49.9 nM) | 1.55 (≈ 3870 nM) |  |
| CC(NC(=S)Nc1ccc(NC(=O)c2cscn2)cc1)c1ccccc1Br (stereo not drawn) [Example 843] |  | 0.0031 (≈ 6.72 nM) | >7.5 |  |
| CC(NC(=S)Nc1ccc(NC(=O)c2cscn2)cc1)c1cccc(Br)c1 (stereo not drawn) [Example 844] |  | 0.0008 (≈ 1.73 nM) | 1.03 (≈ 2230 nM) |  |
| CC(NC(=S)Nc1ccc(NC(=O)c2cscn2)cc1)c1ccccc1C(F)(F)F (stereo not drawn) [Example 845] |  | 0.0060 (≈ 13.3 nM) | >7.5 |  |

| SMILES | IC50 (ug/ml) HSV (HSV-1) [µg/mL] | IC50 (ug/ml) HCMV [1] [µg/mL] | IC50 (ug/ml) VZV (VZV strain Ellen) [µg/mL] | further results |
| --- | --- | --- | --- | --- |
| CC(NC(=S)Nc1ccc(NC(=O)c2cscn2)cc1)c1ccc(F)cc1F (stereo not drawn) [Example 846] |  | 0.0130 (≈ 31.1 nM) | 1.04 (≈ 2490 nM) |  |
| C[C@@H](NC(=S)Nc1ccc(NC(=O)c2cscn2)cc1)c1cc(C(F)(F)F)cc(C(F)(F)F)c1 [Example 847] |  | 0.0008 (≈ 1.54 nM) | >7.5 |  |
| CC(NC(=S)Nc1ccc(NC(=O)c2cscn2)cc1)c1ccc(Cl)c(Cl)c1 (stereo not drawn) [Example 848] |  | 0.002 (≈ 4.43 nM) | 0.19 (≈ 421 nM) |  |
| CC(NC(=S)Nc1ccc(NC(=O)c2cscn2)cc1)c1ccc(C(F)(F)F)c(F)c1 (stereo not drawn) [Example 849] |  | 0.002 (≈ 4.27 nM) | 1.82 (≈ 3880 nM) |  |
| CC(NC(=S)Nc1ccc(NC(=O)c2cscn2)cc1)c1ccc(Cl)c(C(F)(F)F)c1 (stereo not drawn) [Example 850] |  | 0.0008 (≈ 1.65 nM) | 2.33 (≈ 4800 nM) |  |
| CC(NC(=S)Nc1ccc(NC(=O)c2cscn2)cc1)c1ccc(Cl)cc1F (stereo not drawn) [Example 851] |  | 0.017 (≈ 39.1 nM) | 1.43 (≈ 3290 nM) |  |
| CC(NC(=S)Nc1ccc(NC(=O)c2cscn2)cc1)c1ccc(F)cc1C(F)(F)F (stereo not drawn) [Example 852] |  | 0.005 (≈ 10.7 nM) | >7.5 |  |
| CC(NC(=S)Nc1ccc(NC(=O)c2cscn2)cc1)c1ccc(Cl)c(F)c1 (stereo not drawn) [Example 853] |  | 0.004 (≈ 9.2 nM) | 0.62 (≈ 1430 nM) |  |
| CCC(NC(=S)Nc1ccc(NC(=O)c2csnn2)cc1)c1cc(C(F)(F)F)cc(C(F)(F)F)c1 (stereo not drawn) [Example 857] |  | 0.0006 (≈ 1.12 nM) | >7.5 |  |
| CCCC(NC(=S)Nc1ccc(NC(=O)c2csnn2)cc1)c1cc(C(F)(F)F)cc(C(F)(F)F)c1 (stereo not drawn) [Example 858] |  | 0.0007 (≈ 1.28 nM) | >7.5 |  |
| CCCCC(NC(=S)Nc1ccc(NC(=O)c2csnn2)cc1)c1cc(C(F)(F)F)cc(C(F)(F)F)c1 (stereo not drawn) [Example 859] |  | 0.00001 (≈ 0.0178 nM) | 0.5 (≈ 890 nM) |  |
| O=C(Nc1ccc(NC(=S)NC(c2ccccc2)c2cc(C(F)(F)F)cc(C(F)(F)F)c2)cc1)c1csnn1 (stereo not drawn) [Example 860] |  | 0.001 (≈ 1.72 nM) | >7.5 |  |
| CC(C)(NC(=S)Nc1ccc(NC(=O)c2csnn2)cc1)c1cc(C(F)(F)F)cc(C(F)(F)F)c1 [Example 861] |  | 0.002 (≈ 3.75 nM) | >7.5 |  |
| O=C(Nc1ccc(NC(=S)NCc2cc(C(F)(F)F)cc(C(F)(F)F)c2)cc1)c1c[nH]cn1 [Example 862] |  | 0.1 (≈ 205 nM) | >7.5 |  |
| CC(NC(=S)Nc1ccc(NC(=O)c2c[nH]cn2)cc1)c1ccc(F)cc1 (stereo not drawn) [Example 863] |  | 2.0 (≈ 5220 nM) | >7.5 |  |
| Cn1cnc(C(=O)Nc2ccc(NC(=S)NCc3cc(C(F)(F)F)cc(C(F)(F)F)c3)cc2)c1 [Example 864] |  | 0.5 (≈ 997 nM) | >7.5 |  |
| CCC(NC(=S)Nc1ccc(NC(=O)c2cscn2)cc1)c1cc(C(F)(F)F)cc(C(F)(F)F)c1 (stereo not drawn) [Example 865] |  | 0.0001 (≈ 0.188 nM) | >7.5 |  |
| CC(=O)Nc1ccc(NC(=S)Nc2ccc(C(C)O)c(Cl)c2)cc1 (stereo not drawn) [Example 913, N-(4-{3-[3-Chloro-4-(1-hydroxy-ethyl)-phenyl]-thioureido}-phenyl)-acetamide] |  |  |  | IC50 [1]: 0.056 µg/mL (≈ 154 nM); inhibition at 10 µg/mL (VZV strain Ellen): 15% |
| CC(=O)Nc1ccc(NC(=S)Nc2ccc(-c3ccno3)c(Cl)c2)cc1 [Example 974, N-{4-[3-(3-Chloro-4-isoxazol-5-yl-phenyl)-thioureido]-phenyl} -acetamide] |  |  |  | IC50 [1]: 0.011 µg/mL (≈ 28.4 nM); inhibition at 10 µg/mL (VZV strain Ellen): 14% |
| CC(=O)Nc1ccc(NC(=S)Nc2cc(Cl)cc(Cl)c2)cc1 [Example 983, N-{4-[3-(3,5-Dichloro-phenyl)-thioureido]-phenyl}-acetamide] |  |  |  | IC50 [1]: 0.12 µg/mL (≈ 339 nM); inhibition at 10 µg/mL (VZV strain Ellen): 52% |
